Data set [1] is described as follows: Assay for the Determination of Metabolic Stability with Human Hepatocytes. In kind it is in vitro ADME. The note with it: scaled with well stirred model. Here is the method: Assay for the Determination of Metabolic Stability with Human Hepatocytes
The metabolic degradation of the test compound is assayed in a human hepatocyte suspension. Human hepatocytes (typically cryopreserved) are incubated in an appropriate buffer system (e.g. Dulbecco's modified eagle medium plus 3.5 μg glucagon/500 mL, 2.5 mg insulin/500 mL and 3.75 mg/500 mL hydrocortison) containing 5% species serum. Following a (typically) […] preincubation in an incubator (37° C., 10% CO2), 5 μl of test compound solution (80 μM; from 2 mM stock solution in DMSO diluted 1:25 with medium) are added into 395 μl hepatocyte suspension (cell density in the range 0.25-5*10^6 cells/mL, typically 1*10^6 cells/mL; final concentration of test compound 1 μM, final DMSO concentration […]). The cells are incubated for six hours (incubator, orbital shaker) and samples (25 μl) are taken at 0, 0.5, 1, 2, 4 and 6 hours. Samples are transferred into acetonitrile and pelleted by centrifugation (5 min). The supernatant is transferred to a new 96-deepwell plate, evaporated under nitrogen and resuspended. The decline of parent compound is analyzed by LC-MS/MS.
The intrinsic clearance CL_[…] is calculated as follows: CL_[…]=Dose/AUC=(C0/CD)/(AUD+clast/k)*1′000/60 (C0: initial concentration in the incubation [μM], CD: cell density of vital cells [10^6 cells/mL], AUD: area under the data [μM*h], clast: concentration of last data point [μM], k: slope of the regression line for parent decline [h^−1])
The calculated in vitro hepatic intrinsic clearance can be scaled up to the intrinsic in vivo hepatic clearance and used to predict hepatic in vivo blood clearance (CL) by the use of a is liver model (well stirred model): CL_[…]_INVIVO [ml/min/kg]=(CL_[…] [μL/min/10^6 cells]* hepatocellularity[10^6 cells/g liver]*liver factor[g/kg bodyweight])/1′000 CL[ml/min/kg]=CL_[…]_INVIVO [ml/min/kg]*hepatic blood flow [ml/min/kg]/(CL_[…]_INVIVO [ml/min/kg]+hepatic blood flow [ml/min/kg]) Qh[%]=CL[ml/min/kg]/hepatic blood flow[ml/min/kg]) (Hepatocellularity, human: 120*10^6 cells/g liver; lver factor, human: 25.7 g/kg bodyweight; blood flow, human: 21 ml/(min*kg))
The predicted human hepatic in vivo blood clearance (CL) of selected compounds in the metabolic stability assay described above are listed in Table 16.

Data set [2] in a line: Assay for the Determination of Metabolic Stability with Human Liver Microsomes. Type of data set: in vitro ADME. As to conditions: pH 7.6; pooled human liver microsomes, 37° C., NADPH; read-out: t1/2 INVITRO. How it is done: Assay for the Determination of Metabolic Stability with Human Liver Microsomes
The metabolic degradation of the test compound is assayed at 37° C. with pooled human liver microsomes. The final incubation volume of […] per time point contains TRIS buffer pH 7.6 (0.1 M), magnesium chloride (5 mM), microsomal protein (1 mg/ml) and the test compound at a final concentration of […]. Following a short preincubation period at 37° C., the reactions are initiated by addition of beta-nicotinamide adenine dinucleotide phosphate, reduced form (NADPH, 1 mM) and terminated by transfering an aliquot into acetonitrile after different time points. Additionally, the NADPH-independent degradation is monitored in incubations without NADPH, terminated at the last time point. The rol remaining test compound after NADPH independent incubation is reflected by the parameter c(control) (metabolic stability). The quenched incubations are pelleted by centrifugation (10′000 g, 5 min) An aliquot of the supernatant is assayed by LC-MS/MS for the amount of parent compound.
The half-life (t1/2 INVITRO) is determined by the slope of the semilogarithmic plot of the concentration-time profile. The intrinsic clearance (CL_[…]) is calculated by considering the amount of protein in the incubation: CL_[…][μl/min/mg protein]=(ln 2/(half-life [min]*protein content [mg/ml]))*1′000.
The half-life (t1/2 INVITRO) values of selected compounds in the metabolic stability assay described above are listed in Table 15.

Data set [3] deals with Human neutrophil elastase (Homo sapiens (Human), UniProt P08246). The experiment in a line: Human Neutrophil Elastase Assay. Type of data set: biochemical. The procedure, abridged:
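Readout: AMC fluorescence (ex 380, em 460 nm) after 60 min room-temperature reaction with 250 nM MeOSuc-AAPV-AMC, following 15 min compound–enzyme preincubation. Buffer: Tris/NaCl pH 7.5, 0.01% BSA.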

Data set [4] is described as follows: Assay for Determination of Aqueous Solubility. Type of data set: physicochemical. The note with it: McIlvaine buffer pH 6.8, 2.5% DMSO; for Aqueous solubility: 24 h. Here is the method: Assay for Determination of Aqueous Solubility
The aqueous solubility of a compound is determined by comparing the amount dissolved in aqueous buffer (containing 2.5% DMSO) to the amount dissolved in an acetonitrile/water (1/1) solution. Starting from a 10 mM DMSO stock solution, aliquots are diluted with acetonitrile/water (1/1) and Mcllvaine buffer pH 6.8, respectively. After 24 h of shaking, the solutions or suspensions are filtered and analyzed by LC-UV. The amount dissolved in buffer is compared to the amount dissolved in the acetonitrile/water (1/1) solution. Solubility is measured from 0.001 to 0.125 mg/ml at a DMSO concentration of 2.5%. If more than 90% of the compound is dissolved in buffer, the value is marked with “>”.

[5] abbreviates: human neutrophil elastase, substrate MeOSuc-Ala-Ala-Pro-Val-AMC, pH 7.5, read-out: IC50.

The values below come from patent USRE47493E1, “Substituted bicyclic dihydropyrimidinones and their use as inhibitors of neutrophil elastase activity” (Boehringer Ingelheim International GmbH, priority 2014, dated 2019).

The term IC50 denotes the midpoint of a concentration-inhibition curve. What is called Aqueous solubility is the concentration that dissolves in the medium under given conditions. Broadly, the solubility is how much of the substance goes into solution per volume. A higher solubility goes with much dissolved substance.

The structures appear in SMILES notation. ≈ marks a conversion by molar mass, not a printed value. Like-named read-outs stand apart in the source and are kept apart here.

Human neutrophil elastase, sequence (P08246 30-267): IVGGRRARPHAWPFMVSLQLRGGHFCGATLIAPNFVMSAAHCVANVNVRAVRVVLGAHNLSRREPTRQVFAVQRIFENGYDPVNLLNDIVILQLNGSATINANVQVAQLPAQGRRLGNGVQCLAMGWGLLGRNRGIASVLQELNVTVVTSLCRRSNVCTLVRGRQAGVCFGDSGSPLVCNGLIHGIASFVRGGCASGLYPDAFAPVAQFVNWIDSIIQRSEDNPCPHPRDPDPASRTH

Turning to `CS(=O)(=O)c1cc(C#N)ccc1[C@H]1NC(=O)N(c2cccc(C(F)(F)F)c2)C2=C1C(=O)CCC2` (single isomer, unassigned) [Example 18A], the “CL (predicted human hepatic in vivo blood clearance)” value in data set [1] was 0 mL/min/kg. In addition, the half-life at 1 nM in data set [2] was > 2.17 h. For the same compound, the IC50 in data set [3] (setting [5]) is 4.8 nM; in data set [3] (read-out: IC50, inhibition of neutrophil elastase), 4.8 nM. The compound further came in with an Aqueous solubility in data set [4] of 78 µg/mL.

Consider `CS(=O)(=O)c1cc(C#N)ccc1[C@H]1NC(=O)N(c2cccc(C(F)F)c2)C2=C1C(=O)CCC2` (single isomer, unassigned) [Example 19A], for which the “CL (predicted human hepatic in vivo blood clearance)” value in data set [1] is 0 mL/min/kg. Moreover, the half-life at 1 nM in data set [2] is > 2.17 h. Besides, in data set [3] (setting [5]), the IC50 is 7.3 nM. Also, the Aqueous solubility in data set [4] was 92 µg/mL.

As for `CC(C)(O)CNC(=O)N1C(=O)N(c2cccc(C(F)(F)F)c2)C2=C(C(=O)CCC2)C1c1ccc(C#N)cc1` (stereo not drawn) [Example 70.9], in data set [1], the “CL (predicted human hepatic in vivo blood clearance)” value is 0 mL/min/kg. Further, in data set [2], the half-life at 1 nM was > 2.17 h. Also, the IC50 in data set [3] (setting [5]) turned out to be 1.7 nM. The compound further registered a solubility at 24 h in data set [4] (McIlvaine buffer pH 6.8 with 2.5% DMSO, aqueous buffer, kinetic from dmso stock) of 12 µg/mL (≈ 22.8 µM).

On to `CNC(=O)N1C(=O)N(c2cccc(C(F)(F)F)c2)C2=C(C(=O)CCC2)[C@H]1c1ccc(C#N)cc1S(C)(=O)=O` (single isomer, unassigned) [Example 47A], for which, in data set [1], the “CL (predicted human hepatic in vivo blood clearance)” value was 0 mL/min/kg. For the same compound, the half-life at 1 nM in data set [2] is > 2.17 h. Besides, the IC50 in data set [3] (setting [5]) is < 1 nM. Besides, the Aqueous solubility in data set [4] worked out at 86 µg/mL.

Consider `CCS(=O)(=O)c1cc(C#N)ccc1[C@H]1NC(=O)N(c2cccc(C(F)(F)F)c2)C2=C1C(=O)CCC2` (single isomer, unassigned) [Example 54A], for which the “CL (predicted human hepatic in vivo blood clearance)” value in data set [1] is 2 mL/min/kg. For the same compound, the half-life at 1 nM in data set [2] is > 2.17 h. For the same compound, in data set [3] (setting [5]), the IC50 is 3.2 nM. Further, the Aqueous solubility in data set [4] is 59 µg/mL.
